Measured values published in patent publication US9205091B2, “Diazeniumdiolated compounds, pharmaceutical compositions, and method of treating cancer” (The United States of America, as represented by the …, priority 2009, dated 2015).

Assays:
[1] = test system: H1703 cells; assay: Intracellular nitric oxide, DAF-FM diacetate; assay type: cell-based, human; settings: 1 μM, up to 60 min
Procedure: (§1) Cells growing on 6-well plates are loaded with 2.5 μM DAF-FM diacetate in HBSS at 37° C. and 5% CO2. After 30 min of incubation the cells are rinsed with HBSS to remove excess probe, and JS-K in fresh HBSS is added to the cells at 1 μM final concentration. After 30 or 60 min incubation the fluorescence of the benzotriazole derivative formed on DAF-FM's reaction with aerobic NO is analyzed using a Perkin Elmer LS50B luminescence spectrometer with the excitation source at 495 nm and emission at 515 nm. All experiments are performed at least three times, each time in triplicate.

[2] = test system: H1944 cells; assay: Intracellular nitric oxide, DAF-FM diacetate; assay type: cell-based, human; settings: 1 μM, up to 60 min
Procedure: as §1

## CCOC(=O)N1CCN(/[N+]([O-])=N/Oc2ccc([N+](=O)[O-])cc2[N+](=O)[O-])CC1 [Compound 1]
[1]
  intracellular NO: increase
[2]
  intracellular NO: increase
